Measured values taken from patent US9221834B2 (Merck Sharp & Dohme Corp., priority 2010, dated 2015).

Target: T1, recombinant CETP (rCETP) (Homo sapiens, UniProt P11597)
T1 sequence (P11597 18-493): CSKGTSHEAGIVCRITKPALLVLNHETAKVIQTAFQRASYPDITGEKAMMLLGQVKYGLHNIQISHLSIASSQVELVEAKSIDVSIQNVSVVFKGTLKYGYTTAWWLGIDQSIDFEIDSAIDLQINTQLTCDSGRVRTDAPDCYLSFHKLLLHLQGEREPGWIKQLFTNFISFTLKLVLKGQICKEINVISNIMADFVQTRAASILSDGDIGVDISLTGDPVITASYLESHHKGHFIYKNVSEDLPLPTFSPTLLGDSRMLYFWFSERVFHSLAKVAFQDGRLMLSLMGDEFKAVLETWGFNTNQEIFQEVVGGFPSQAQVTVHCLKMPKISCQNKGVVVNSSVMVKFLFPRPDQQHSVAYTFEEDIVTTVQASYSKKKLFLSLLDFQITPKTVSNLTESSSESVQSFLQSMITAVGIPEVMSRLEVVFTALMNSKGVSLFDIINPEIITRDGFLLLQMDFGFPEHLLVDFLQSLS
Experiment: RTA assay using recombinant CETP (2% RTA)
Type: biochemical
Settings: RTA assay in 2% human serum; read-out: IC50
How it was run: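 Compounds preincubated 1 h at 37 °C with assay cocktail (CETP buffer: 50 mM Tris pH 7.4, 100 mM NaCl, 1 mM EDTA; human HDL acceptor); transfer started with [3H]cholesteryl oleate- or [3H]triolein-labelled LDL, 60 min at 37 °C. LDL PEG-precipitated; supernatant counted by scintillation, blank-corrected; IC50 from 4-parameter sigmoidal fit of % inhibition vs DMSO control.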

Question: For `COc1ccc([C@H]2CC[C@H](C(=O)O)CC2)cc1-c1ccc(N2CCC2)nc1CN1C(=O)O[C@H](c2cccc(C(F)(F)F)c2)[C@@H]1C` [Example 219], which IC50 is on record?
Answer: 0.044 µM

Question: `COC(=O)CCc1ccc(OC)c(-c2cnc(N3CC(OC)C3)nc2CN2C(=O)O[C@H](c3cc(C(F)(F)F)cc(C(F)(F)F)c3)[C@@H]2C)c1` [Example 140, Methyl 3-{3-[4-({(4S,5R)-5-[3,5-bis(trifluoromethyl)phenyl]-4-methyl-2-oxo-1,3-oxazolidin-3-yl}methyl)-2-(3-methoxyazetidin-1-yl)pyrimidin-5-yl]-4-methoxyphenyl}propanoate] was tested. Which IC50 did it give?
Answer: 0.344 µM

Question: With `COC(=O)CCc1ccc(OC)c(-c2ccc(N3CCCC3)nc2CN2C(=O)O[C@H](c3cc(C(F)(F)F)cc(C(F)(F)F)c3)[C@@H]2C)c1` [Example 2] as the molecule, how does the IC50 read?
Answer: 0.033 µM

Question: With `COc1cc(F)c(CCC(=O)O)cc1-c1ccc(N2CCC2)nc1CN1C(=O)O[C@H](c2cc(C(F)(F)F)cc(C(F)(F)F)c2)[C@@H]1C` [Example 79] as the molecule, how does the IC50 read?
Answer: 0.018 µM

Question: `COc1ccc(Cc2ncc[nH]2)cc1-c1ccc(N2CCC2)nc1CN1C(=O)O[C@H](c2cc(C(F)(F)F)cc(C(F)(F)F)c2)[C@@H]1C` [Example 267, (4S,5R)-3-({6-azetidin-1-yl-3-[5-(1H-imidazol-2-ylmethyl)-2-methoxyphenyl]pyridin-2-yl}methyl)-5-[3,5-bis(trifluoromethyl)phenyl]-4-methyl-1,3-oxazolidin-2-one] was tested. Which IC50 did it give?
Answer: 0.067 µM

Question: How did the IC50 turn out when `COc1ccc(CCC(N)=O)cc1-c1ccc(N2CCC2)nc1CN1C(=O)O[C@H](c2cc(C)cc(C)c2)[C@@H]1C` [Example 249, 3-[3-(6-azetidin-1-yl-2-{[(4S,5R)-5-(3,5-dimethylphenyl)-4-methyl-2-oxo-1,3-oxazolidin-3-yl]methyl}pyridin-3-yl)-4-methoxyphenyl]propanamide] was run?
Answer: 0.105 µM

Question: For `COc1ccc(-c2ccc(C(=O)O)nc2)cc1-c1ccc(N2CCC2)nc1CN1C(=O)O[C@H](c2cc(C(F)(F)F)cc(C(F)(F)F)c2)[C@@H]1C` [Example 120], which IC50 is on record?
Answer: 0.033 µM

Question: `COC(=O)CC(C)(C)c1ccc(OC)c(-c2ccc(N3CCC3)nc2CN2C(=O)O[C@H](c3cc(F)cc(F)c3)[C@@H]2C)c1` [Example 15] was tested. Which IC50 did it give?
Answer: 0.159 µM

Question: How did the IC50 turn out when `COC(=O)[C@H]1CC[C@H](c2ccc(Cl)c(-c3cnc(N4CC(OC)C4)nc3CN3C(=O)O[C@H](c4cc(C(F)(F)F)cc(C(F)(F)F)c4)[C@@H]3C)c2)CC1` [Example 138] was run?
Answer: 2.03 µM

Question: Which IC50 does the source give for `COc1ccc(C2CCC(O)C2)cc1-c1ccc(N2CCC2)nc1CN1C(=O)O[C@H](c2cc(C(F)(F)F)cc(C(F)(F)F)c2)[C@@H]1C` (mixture of isomers) [Example 263] here?
Answer: 0.005 µM

Question: How did the IC50 turn out when `CCOC(=O)C[C@@H]1CCc2cc(OC)c(-c3ccc(N4CCC4)nc3CN3C(=O)O[C@H](c4cc(F)cc(F)c4)[C@@H]3C)cc21` [Example 20] was run?
Answer: 0.096 µM

Question: How did the IC50 turn out when `COc1ccc([C@@H]2C[C@H]2C(=O)O)cc1-c1ccc(N2CCC2)nc1CN1C(=O)O[C@H](c2cc(C(F)(F)F)cc(C(F)(F)F)c2)[C@@H]1C` [Example 72] was run?
Answer: 0.007 µM

Question: Which IC50 does the source give for `COc1ccc([C@H]2CC[C@H](C(=O)O)CC2)cc1-c1ccc(N2CCC2)nc1CN1C(=O)O[C@H](c2cc(F)cc(F)c2)[C@@H]1C` [Example 85] here?
Answer: 0.084 µM

Question: Which IC50 does the source give for `COc1ccc([C@H]2C[C@@H](C(=O)O)C2)cc1-c1ccc(N2CCC2)nc1CN1C(=O)O[C@H](c2cc(C(F)(F)F)cc(C(F)(F)F)c2)[C@@H]1C` [Example 89] here?
Answer: 0.029 µM

Question: How did the IC50 turn out when `COc1ccc([C@H]2CC[C@H](C(=O)O)CC2)cc1-c1ccc(N2CC(F)(F)C2)nc1CN1C(=O)O[C@H](c2cc(C)cc(C(F)(F)F)c2)[C@@H]1C` [Example 293] was run?
Answer: 0.007 µM

Question: For `COc1ccc([C@H]2C[C@@H]2C(=O)O)cc1-c1ccc(N2CCC2)nc1CN1C(=O)O[C@H](c2cc(F)cc(F)c2)[C@@H]1C` [Example 84], which IC50 is on record?
Answer: 0.073 µM

Question: How did the IC50 turn out when `COc1ccc(CC#N)cc1-c1ccc(N2CCC2)nc1CN1C(=O)O[C@H](c2cc(C(F)(F)F)cc(C(F)(F)F)c2)[C@@H]1C` [Example 256, {3-[6-azetidin-1-yl-2-({(4S,5R)-5-[3,5-bis(trifluoromethyl)phenyl]-4-methyl-2-oxo-1,3-oxazolidin-3-yl}methyl)pyridin-3-yl]-4-methoxyphenyl}acetonitrile] was run?
Answer: 0.005 µM

Question: How did the IC50 turn out when `COC(=O)[C@@H]1CC[C@@H](c2ccc(OC)c(-c3ccc(N4CCC4)nc3CN3C(=O)O[C@H](c4cc(C(F)(F)F)cc(C(F)(F)F)c4)[C@@H]3C)c2)C1` (racemic) [Example 214] was run?
Answer: 0.008 µM

Question: `Cc1cc(C(=O)O)ccc1-c1ccc(C)c(-c2cnc(N3CC(F)(F)C3)nc2CN2C(=O)O[C@H](c3cc(C(F)(F)F)cc(C(F)(F)F)c3)[C@@H]2C)c1` [Example 178] was tested. Which IC50 did it give?
Answer: 0.006 µM

Question: `COc1ccc(Cc2nc[nH]n2)cc1-c1ccc(N2CCC2)nc1CN1C(=O)O[C@H](c2cc(C(F)(F)F)cc(C(F)(F)F)c2)[C@@H]1C` [Example 265] was tested. Which IC50 did it give?
Answer: 0.023 µM

Question: For `COc1ccc(CCC(=O)O)cc1-c1ccc(N2CCCC2)nc1CN1C(=O)O[C@H](c2cc(C(F)(F)F)cc(C(F)(F)F)c2)[C@@H]1C` [Example 62], which IC50 is on record?
Answer: 0.049 µM

Question: For `COC(=O)CC(C)(C)c1ccc(OC)c(-c2cnc(N3CCC3)nc2CN2C(=O)O[C@H](c3cc(C(F)(F)F)cc(C(F)(F)F)c3)[C@@H]2C)c1` [Example 145], which IC50 is on record?
Answer: 0.016 µM

Question: For `CCOC(=O)C[C@@H]1CCc2cc(OC)c(-c3ccc(N4CCC4)nc3CN3C(=O)O[C@H](c4cc(C)cc(C)c4)[C@@H]3C)cc21` [Example 205], which IC50 is on record?
Answer: 0.054 µM

Question: With `COc1ccc(CC(C)(C)C(=O)O)cc1-c1ccc(N2CCC2)nc1CN1C(=O)O[C@H](c2cc(C)cc(C)c2)[C@@H]1C` [Example 227] as the molecule, how does the IC50 read?
Answer: 0.065 µM

Question: For `COc1ccc(CC(C)(C)C(=O)O)cc1-c1cnc(N2CCC2)nc1CN1C(=O)O[C@H](c2cc(C(F)(F)F)cc(C(F)(F)F)c2)[C@@H]1C` [Example 156], which IC50 is on record?
Answer: 0.042 µM

Question: How did the IC50 turn out when `COC(=O)c1ccc(-c2ccc(OC)c(-c3ccc(N4CCC4)nc3CN3C(=O)O[C@H](c4cc(C(F)(F)F)cc(C(F)(F)F)c4)[C@@H]3C)c2)s1` [Example 48] was run?
Answer: 0.065 µM

Question: Which IC50 does the source give for `COC(=O)c1ccc(-c2ccc(OC)c(-c3ccc(N4CCC4)nc3CN3C(=O)O[C@H](c4cccc(C)c4)[C@@H]3C)c2)c(C)c1` [Example 212] here?
Answer: 0.075 µM

Question: Which IC50 does the source give for `COc1ccc(-c2nc(C)c(C(=O)O)s2)cc1-c1ccc(N2CCC2)nc1CN1C(=O)O[C@H](c2cc(C(F)(F)F)cc(C(F)(F)F)c2)[C@@H]1C` [Example 116] here?
Answer: 0.077 µM

Question: How did the IC50 turn out when `COc1ccc([C@H]2C[C@@H]2C(=O)O)cc1-c1c(C)cc(N2CCC2)nc1CN1C(=O)O[C@H](c2cc(C(F)(F)F)cc(C(F)(F)F)c2)[C@@H]1C` [Example 71] was run?
Answer: 0.005 µM

Question: Which IC50 does the source give for `COc1ccc([C@H]2C[C@@H](C(=O)O)C2)cc1-c1c(C)cc(N2CCC2)nc1CN1C(=O)O[C@H](c2cc(C(F)(F)F)cc(C(F)(F)F)c2)[C@@H]1C` [Example 96] here?
Answer: 0.008 µM

Question: How did the IC50 turn out when `COc1ccc([C@H]2CC[C@H](C(=O)OC)CC2)cc1-c1cnc(N2CC(F)(F)C2)nc1CN1C(=O)O[C@H](c2cc(C(F)(F)F)cc(C(F)(F)F)c2)[C@@H]1C` [Example 128] was run?
Answer: 1.08 µM

Question: For `COc1ccc(CCc2ncc[nH]2)cc1-c1ccc(N2CCC2)nc1CN1C(=O)O[C@H](c2cc(C(F)(F)F)cc(C(F)(F)F)c2)[C@@H]1C` [Example 268], which IC50 is on record?
Answer: 0.091 µM

Question: `COc1ccc(CCC(=O)O)cc1-c1ccc(N2CCCCC2)nc1CN1C(=O)O[C@H](c2cc(C(F)(F)F)cc(C(F)(F)F)c2)[C@@H]1C` [Example 271, 3-{3-[2-({(4S,5R)-5-[3,5-bis(trifluoromethyl)phenyl]-4-methyl-2-oxo-1,3-oxazolidin-3-yl}methyl)-6-piperidin-1-ylpyridin-3-yl]-4-methoxyphenyl}propanoic acid] was tested. Which IC50 did it give?
Answer: 0.096 µM

Question: Which IC50 does the source give for `Cc1cc(C(=O)O)ccc1-c1cc(-c2cnc(N3CCC3)nc2CN2C(=O)O[C@H](c3cccc(C(F)(F)F)c3)[C@@H]2C)ccc1F` [Example 276] here?
Answer: 0.076 µM

Question: How did the IC50 turn out when `COc1ccc(-c2sc(C(=O)O)cc2C)cc1-c1ccc(N2CCC2)nc1CN1C(=O)O[C@H](c2cc(C(F)(F)F)cc(C(F)(F)F)c2)[C@@H]1C` [Example 106] was run?
Answer: 0.012 µM

Question: `COC(=O)c1ccc(-c2cc(-c3cnc(N4CC(F)(F)C4)nc3CN3C(=O)O[C@H](c4cc(C(F)(F)F)cc(C(F)(F)F)c4)[C@@H]3C)c(OC)cc2F)c(C)c1` [Example 132] was tested. Which IC50 did it give?
Answer: 0.004 µM

Question: For `COc1cc(F)c(-c2ccc(C(=O)O)cc2C)cc1-c1cnc(N2CCC2)nc1CN1C(=O)O[C@H](c2ccc(F)cc2)[C@@H]1C` [Example 279], which IC50 is on record?
Answer: 0.189 µM

Question: Which IC50 does the source give for `COC(=O)c1ccc(-c2ccc(OC)c(-c3ccc(N4CCC4)nc3CN3C(=O)O[C@H](c4cc(C(F)(F)F)cc(C(F)(F)F)c4)[C@@H]3C)c2)nc1` [Example 59] here?
Answer: 0.195 µM

Question: For `COc1ccc([C@@H]2CC[C@H](C(=O)O)C2)cc1-c1ccc(N2CCC2)nc1CN1C(=O)O[C@H](c2cc(C(F)(F)F)cc(C(F)(F)F)c2)[C@@H]1C` (single isomer, unassigned) [Example 246], which IC50 is on record?
Answer: 0.012 µM

Question: With `COc1ccc([C@H]2CC[C@H](C(=O)O)CC2)cc1-c1ccc(N2CCC2)nc1CN1C(=O)O[C@H](c2cc(F)c(F)c(F)c2)[C@@H]1C` [Example 101] as the molecule, how does the IC50 read?
Answer: 0.037 µM

Question: `COC(=O)c1coc(-c2ccc(OC)c(-c3ccc(N4CCC4)nc3CN3C(=O)O[C@H](c4cc(C(F)(F)F)cc(C(F)(F)F)c4)[C@@H]3C)c2)c1` [Example 53] was tested. Which IC50 did it give?
Answer: 0.061 µM

Question: With `COC(=O)c1ccc(-c2ccc(OC)c(-c3cnc(N4CC(F)(F)C4)nc3CN3C(=O)O[C@H](c4cc(C(F)(F)F)cc(C(F)(F)F)c4)[C@@H]3C)c2)c(C)c1` [Example 131] as the molecule, how does the IC50 read?
Answer: 0.01 µM
